Common to all, as to format: biochemical
Experiment [1] concerns the target T1, recombinant human DPP7 (Homo sapiens, UniProt Q9UHL4).
T1 construct: purchased R&D Systems
In words: DPP7 inhibition, fluorogenic substrate Lys-Pro-AMC. The following applies: recombinant human DPP7. A digest of the protocol:
(§1)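 Enzyme per reaction: 50 ng DPP9, 20 ng DPP8, 10 ng each DPP7 and PREP. Compounds were serially diluted (8 points, up to 0.5% DMSO) and incubated at 25 °C.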

In experiment [2] the target is T2, Recombinant human FAP (Homo sapiens, UniProt Q12884).
T2 construct: purchased R&D systems
T2 sequence (Q12884 1-760): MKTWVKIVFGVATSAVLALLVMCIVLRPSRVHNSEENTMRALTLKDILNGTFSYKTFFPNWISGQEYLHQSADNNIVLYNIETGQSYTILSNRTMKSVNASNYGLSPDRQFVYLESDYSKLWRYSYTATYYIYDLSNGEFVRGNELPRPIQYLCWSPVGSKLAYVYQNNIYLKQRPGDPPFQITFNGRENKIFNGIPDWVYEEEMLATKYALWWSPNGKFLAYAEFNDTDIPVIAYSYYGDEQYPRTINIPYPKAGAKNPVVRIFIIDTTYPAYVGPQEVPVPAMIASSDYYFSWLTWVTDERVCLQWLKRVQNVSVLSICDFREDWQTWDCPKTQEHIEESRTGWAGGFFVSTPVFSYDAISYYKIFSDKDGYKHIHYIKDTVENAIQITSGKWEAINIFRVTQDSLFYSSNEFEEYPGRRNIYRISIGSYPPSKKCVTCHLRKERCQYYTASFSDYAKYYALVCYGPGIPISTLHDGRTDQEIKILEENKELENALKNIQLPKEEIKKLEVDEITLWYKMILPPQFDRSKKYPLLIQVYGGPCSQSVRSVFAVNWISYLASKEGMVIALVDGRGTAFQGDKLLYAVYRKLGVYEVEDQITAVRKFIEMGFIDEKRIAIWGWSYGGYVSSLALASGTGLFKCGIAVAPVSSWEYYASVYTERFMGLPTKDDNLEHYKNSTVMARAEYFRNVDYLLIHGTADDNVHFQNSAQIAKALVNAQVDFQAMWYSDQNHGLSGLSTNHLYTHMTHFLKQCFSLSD
Nature of the experiment: FAP FRET assay, FGF21-sequence FRET peptide substrate. To be noted: FRET peptide with human FGF21 sequence, 6 μM, 37° C. The gist of the method:
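Recombinant human FAP, 10 ng per reaction, in 50 mM HEPES pH 7.2 with 150 mM NaCl, 0.1 mg/ml BSA, 1 mM EDTA; HyLite Fluor 488/QXL 520 FRET peptide of human FGF21 sequence at 6 μM final, ≤0.1% DMSO, 37° C. IC50 from 8-point curves by four-parameter logistic fit.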

Experiment [3] concerns the target T3, recombinant human DPP9 (Homo sapiens, UniProt Q86TI2).
T3 construct: purchased R&D Systems
Nature of the experiment: DPP9 inhibition, fluorogenic substrate H-Gly-Pro-AMC. To be noted: recombinant human DPP9. The gist of the method:
as §1

In experiment [4] the target is T4, recombinant human PREP (Homo sapiens, UniProt P48147).
T4 construct: purchased R&D System
T4 sequence (P48147 1-710): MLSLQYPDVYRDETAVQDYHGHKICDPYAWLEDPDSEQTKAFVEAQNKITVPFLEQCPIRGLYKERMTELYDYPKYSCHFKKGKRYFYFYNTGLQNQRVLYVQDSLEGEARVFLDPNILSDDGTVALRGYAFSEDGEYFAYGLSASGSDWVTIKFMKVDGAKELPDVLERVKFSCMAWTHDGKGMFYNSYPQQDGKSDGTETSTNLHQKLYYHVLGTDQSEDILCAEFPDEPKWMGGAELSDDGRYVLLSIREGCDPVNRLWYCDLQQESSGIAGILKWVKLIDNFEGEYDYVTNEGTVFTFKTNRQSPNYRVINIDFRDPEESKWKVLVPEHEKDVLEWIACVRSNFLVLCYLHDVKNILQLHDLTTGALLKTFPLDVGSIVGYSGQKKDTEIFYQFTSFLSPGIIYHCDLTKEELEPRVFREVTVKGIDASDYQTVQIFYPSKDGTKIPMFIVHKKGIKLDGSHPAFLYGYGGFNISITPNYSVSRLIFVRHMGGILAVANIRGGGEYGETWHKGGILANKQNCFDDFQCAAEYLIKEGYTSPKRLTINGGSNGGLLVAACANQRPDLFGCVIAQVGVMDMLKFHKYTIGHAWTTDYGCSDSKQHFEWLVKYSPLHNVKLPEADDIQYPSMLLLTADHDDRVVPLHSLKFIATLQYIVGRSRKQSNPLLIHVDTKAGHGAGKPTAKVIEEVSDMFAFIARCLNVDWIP
In words: PREP inhibition, fluorogenic substrate Z-Gly-Pro-AMC. To be noted: Inhibitory Activity (IC50, nM) PREP, recombinant human PREP. A digest of the protocol:
as §1

Experiment [5] concerns the target DPP4 (Homo sapiens, UniProt P27487). Nature of the experiment: DPP4 inhibition, fluorogenic substrate H-Gly-Pro-AMC. The arrangement: purchased R&D Systems. To be noted: recombinant human DPP4.

Each structure is given as a SMILES string.

DPP4, sequence (P27487 whole entry): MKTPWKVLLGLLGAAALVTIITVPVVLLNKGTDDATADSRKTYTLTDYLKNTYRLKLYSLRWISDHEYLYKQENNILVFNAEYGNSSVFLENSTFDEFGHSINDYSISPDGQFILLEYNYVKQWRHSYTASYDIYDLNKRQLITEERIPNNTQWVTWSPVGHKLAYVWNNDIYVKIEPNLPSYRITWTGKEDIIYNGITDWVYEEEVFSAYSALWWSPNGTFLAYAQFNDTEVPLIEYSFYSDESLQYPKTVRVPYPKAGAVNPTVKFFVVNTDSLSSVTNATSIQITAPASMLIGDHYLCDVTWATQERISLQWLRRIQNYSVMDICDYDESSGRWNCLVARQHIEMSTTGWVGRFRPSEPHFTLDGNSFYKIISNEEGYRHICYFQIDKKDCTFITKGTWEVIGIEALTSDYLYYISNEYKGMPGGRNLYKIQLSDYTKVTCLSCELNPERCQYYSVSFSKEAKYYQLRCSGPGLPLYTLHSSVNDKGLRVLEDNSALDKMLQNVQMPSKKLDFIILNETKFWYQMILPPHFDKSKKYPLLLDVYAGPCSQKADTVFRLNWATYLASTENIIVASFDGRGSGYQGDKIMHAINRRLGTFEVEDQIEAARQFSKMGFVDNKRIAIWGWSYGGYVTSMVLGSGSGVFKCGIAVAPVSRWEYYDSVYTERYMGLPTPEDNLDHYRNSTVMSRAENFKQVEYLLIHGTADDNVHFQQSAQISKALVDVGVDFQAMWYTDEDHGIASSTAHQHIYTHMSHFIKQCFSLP
T3 sequence (Q86TI2 whole entry): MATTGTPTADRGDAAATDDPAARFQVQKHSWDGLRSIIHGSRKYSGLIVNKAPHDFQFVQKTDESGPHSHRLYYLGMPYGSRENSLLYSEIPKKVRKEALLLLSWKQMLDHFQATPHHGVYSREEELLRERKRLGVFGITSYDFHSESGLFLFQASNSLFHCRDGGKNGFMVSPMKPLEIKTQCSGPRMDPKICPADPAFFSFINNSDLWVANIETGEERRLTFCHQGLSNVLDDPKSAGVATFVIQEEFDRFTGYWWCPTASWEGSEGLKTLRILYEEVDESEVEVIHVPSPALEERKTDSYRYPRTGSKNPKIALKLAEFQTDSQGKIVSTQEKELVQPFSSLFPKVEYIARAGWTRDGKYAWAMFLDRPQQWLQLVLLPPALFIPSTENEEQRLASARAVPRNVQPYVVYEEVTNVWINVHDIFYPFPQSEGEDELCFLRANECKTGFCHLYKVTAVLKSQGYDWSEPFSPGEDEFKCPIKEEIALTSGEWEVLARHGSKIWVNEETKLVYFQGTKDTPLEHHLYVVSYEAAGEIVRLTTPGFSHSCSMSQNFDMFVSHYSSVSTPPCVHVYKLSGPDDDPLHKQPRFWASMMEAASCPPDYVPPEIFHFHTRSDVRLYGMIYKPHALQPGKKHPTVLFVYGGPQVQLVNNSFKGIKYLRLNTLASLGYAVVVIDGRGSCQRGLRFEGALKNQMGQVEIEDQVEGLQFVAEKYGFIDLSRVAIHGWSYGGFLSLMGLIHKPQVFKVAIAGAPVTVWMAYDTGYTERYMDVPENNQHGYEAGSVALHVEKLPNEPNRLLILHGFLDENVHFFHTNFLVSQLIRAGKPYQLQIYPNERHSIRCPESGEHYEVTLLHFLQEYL

Regarding `N#C[C@@H]1C[C@H](F)CN1C(=O)CN1CC[C@@H](Nc2cc(Cl)c3ncccc3c2)C1` [Example 215, (2S,4S)-4-fluoro-1-[2-[(3R)-3-[(8-chloro-6-quinolyl)amino]pyrrolidin-1-yl]acetyl]pyrrolidine-2-carbonitrile], the 50% inhibitory concentration (IC50) amounted to 544 nM in experiment [1]; 1.5 nM in experiment [2]; 631 nM in experiment [3]; 3150 nM in experiment [4]; 1160 nM in experiment [5].

`N#C[C@@H]1C[C@H](F)CN1C(=O)CN1CC[C@@H](Nc2ccc3nc(C(F)(F)F)ccc3c2)C1` [Example 210, (2S,4S)-4-fluoro-1-[2-[(3R)-3-[[2-(trifluoromethyl)-6-quinolyl]amino]pyrrolidin-1-yl]acetyl]pyrrolidine-2-carbonitrile]: the IC50 stood at 281 nM in experiment [1]; 3.5 nM in experiment [2]; 1300 nM in experiment [3]; 1480 nM in experiment [4]; 2700 nM in experiment [5].

`N#C[C@@H]1CCCN1C(=O)CN1CCC(Nc2ccc(C(=O)Nc3ccccc3)c3ncccc23)CC1` [Example 396, 5-[[1-[2-oxo-2-[(2S)-2-cyanopyrrolidin-1-yl]ethyl]-4-piperidyl]amino]-N-phenyl-quinoline-8-carboxamide]: the half-maximal inhibitory concentration (IC50) in experiment [1] was 875 nM; in experiment [2] it was 3.1 nM; in experiment [3], 7420 nM; in experiment [4], 1770 nM; in experiment [5] it was 16400 nM.

On to `CN(C(=O)c1ccc(N[C@H]2CCN(CC(=O)N3C[C@@H](F)C[C@H]3C#N)C2)c2cccnc12)c1ccccc1` [Example 284, N-methyl-N-phenyl-5-[[(3S)-1-[2-oxo-2-[(2S,4S)-2-cyano-4-fluoro-pyrrolidin-1-yl]ethyl]pyrrolidin-3-yl]amino]quinoline-8-carboxamide], for which the 50% inhibitory concentration (IC50) in experiment [1] amounted to 932 nM; in experiment [2], 10.6 nM; in experiment [3] it was 1640 nM; in experiment [4], 574 nM; in experiment [5] it was 2390 nM.

With `N#C[C@@H]1C[C@H](F)CN1C(=O)CN1CC[C@@H](Nc2cnc3nc(Cl)ccc3c2)C1` [Example 172, (2S,4S)-4-fluoro-1-[2-[(3R)-3-[(7-chloro-1,8-naphthyridin-3-yl)amino]pyrrolidin-1-yl]acetyl]pyrrolidine-2-carbonitrile], the IC50 came out at 4900 nM in experiment [1]; 9.3 nM in experiment [2]; 5400 nM in experiment [3]; 4240 nM in experiment [4]; 1870 nM in experiment [5].

In the case of `N#C[C@@H]1C[C@H](F)CN1C(=O)CN1CCC(Oc2cccc3ncccc23)CC1` [Example 425, (2S,4S)-4-fluoro-1-[2-[4-(5-quinolyloxy)-1-piperidyl]acetyl]pyrrolidine-2-carbonitrile], the half-maximal inhibitory concentration (IC50) in experiment [1] came to 2150 nM; in experiment [2] it was 7 nM; in experiment [3] it was 33800 nM; in experiment [4], 1330 nM; in experiment [5], 7240 nM.

Regarding `N#C[C@@H]1C[C@H](F)CN1C(=O)CN1CCC(Nc2cc(Cl)c3ncccc3c2)CC1` [Example 376, (2S,4S)-1-[2-[4-[(8-chloro-6-quinolyl)amino]-1-piperidyl]acetyl]-4-fluoro-pyrrolidine-2-carbonitrile], the IC50 in experiment [1] stood at 226 nM; in experiment [2], 7 nM; in experiment [3], 4370 nM; in experiment [4], 870 nM; in experiment [5] it was 3510 nM.

In the case of `Cc1ccc(N[C@@H]2CCN(CC(=O)N3CCC[C@H]3C#N)C2)c2cccnc12` [Example 200, (2S)-1-[2-[(3R)-3-[(8-methyl-5-quinolyl)amino]pyrrolidin-1-yl]acetyl]pyrrolidine-2-carbonitrile], the IC50 in experiment [1] is 1700 nM; in experiment [2], 6.3 nM; in experiment [3], 27300 nM; in experiment [4], 6090 nM; in experiment [5], 5510 nM.

As to `N#C[C@@H]1C[C@H](F)CN1C(=O)CN1CC[C@H](Nc2cc(C(F)(F)F)c3ncccc3c2)C1` [Example 280, (2S,4S)-4-fluoro-1-[2-[(3S)-3-[[8-(trifluoromethyl)-6-quinolyl]amino]pyrrolidin-1-yl]acetyl]pyrrolidine-2-carbonitrile], the concentration for half-maximal inhibition (IC50) was determined as 184 nM in experiment [1]; 2.1 nM in experiment [2]; 674 nM in experiment [3]; 970 nM in experiment [4]; 839 nM in experiment [5].

In the case of `Cc1cc(N[C@@H]2CCN(CC(=O)N3C[C@@H](F)C[C@H]3C#N)C2)cc2cccnc12` [Example 213, (2S,4S)-4-fluoro-1-[2-[(3R)-3-[(8-methyl-6-quinolyl)amino]pyrrolidin-1-yl]acetyl]pyrrolidine-2-carbonitrile], the 50% inhibitory concentration (IC50) came to 393 nM in experiment [1]; 3.5 nM in experiment [2]; 1390 nM in experiment [3]; 3020 nM in experiment [4]; 1740 nM in experiment [5].

Turning to `Cc1ccc(N[C@@H]2CCN(CC(=O)N3C[C@@H](F)C[C@H]3C#N)C2)c2cccnc12` [Example 181, (2S,4S)-4-fluoro-1-[2-[(3R)-3-[(8-methyl-5-quinolyl)amino]pyrrolidin-1-yl]acetyl]pyrrolidine-2-carbonitrile], the IC50 in experiment [1] is 215 nM; in experiment [2] it was 2.6 nM; in experiment [3], 4620 nM; in experiment [4], 4670 nM; in experiment [5], 1060 nM.

`CN(C)C(=O)c1ccc(N[C@H]2CCN(CC(=O)N3C[C@@H](F)C[C@H]3C#N)C2)c2cccnc12` [Example 282, N,N-dimethyl-5-[[(3S)-1-[2-oxo-2-[(2S,4S)-2-cyano-4-fluoro-pyrrolidin-1-yl]ethyl]pyrrolidin-3-yl]amino]quinoline-8-carboxamide]: the IC50 in experiment [1] is 241 nM; in experiment [2], 5.8 nM; in experiment [3], 4850 nM; in experiment [4], 5060 nM; in experiment [5] it was 3470 nM.

For `N#C[C@@H]1CCCN1C(=O)CN1CC[C@@H](Nc2cccc3ncc(Cl)cc23)C1` [Example 203, (2S)-1-[2-[(3R)-3-[(3-chloro-5-quinolyl)amino]pyrrolidin-1-yl]acetyl]pyrrolidine-2-carbonitrile], the IC50 in experiment [1] is 3260 nM; in experiment [2], 0.9 nM; in experiment [3], 11200 nM; in experiment [4], 12200 nM; in experiment [5], 4660 nM.

With `N#C[C@@H]1C[C@H](F)CN1C(=O)CN1CC[C@@H](Nc2cc(F)cc3ncccc23)C1` [Example 174, (2S,4S)-4-fluoro-1-[2-[(3R)-3-[(7-fluoro-5-quinolyl)amino]pyrrolidin-1-yl]acetyl]pyrrolidine-2-carbonitrile], the IC50 in experiment [1] was found to be 846 nM; in experiment [2], 2.6 nM; in experiment [3] it was 1990 nM; in experiment [4] it was 2440 nM; in experiment [5], 3020 nM.

With `CN(c1ccc(OC(F)(F)F)c2ncccc12)[C@H]1CCN(CC(=O)N2C[C@@H](F)C[C@H]2C#N)C1` [Example 160, (2S,4S)-4-fluoro-1-[2-[(3S)-3-[methyl-[8-(trifluoromethoxy)-5-quinolyl]amino]pyrrolidin-1-yl]acetyl]pyrrolidine-2-carbonitrile], the IC50 in experiment [1] was determined as 77.8 nM; in experiment [2], 4.9 nM; in experiment [3], 2820 nM; in experiment [4], 1080 nM; in experiment [5] it was 1780 nM.

Values taken from patent publication US11655235B2, “Pyrrolidine and piperidine compounds” (YUHAN CORPORATION, priority 2019, dated 2023).
